Test results: US11766415B2, “Reducing triglyceride levels and cortisol levels with pharmaceutical preparations” (GLYKON TECHNOLOGIES GROUP, LLC, priority 2020, dated 2023)
Blank lines part the entries; values can stand above or below the compound they belong to.

Experiments:
pancreatic alpha-amylase = target: T1, pancreatic alpha-amylase (Homo sapiens, UniProt P04746); details: background statement; in vitro; cited from earlier work
T1 sequence (P04746 16-511): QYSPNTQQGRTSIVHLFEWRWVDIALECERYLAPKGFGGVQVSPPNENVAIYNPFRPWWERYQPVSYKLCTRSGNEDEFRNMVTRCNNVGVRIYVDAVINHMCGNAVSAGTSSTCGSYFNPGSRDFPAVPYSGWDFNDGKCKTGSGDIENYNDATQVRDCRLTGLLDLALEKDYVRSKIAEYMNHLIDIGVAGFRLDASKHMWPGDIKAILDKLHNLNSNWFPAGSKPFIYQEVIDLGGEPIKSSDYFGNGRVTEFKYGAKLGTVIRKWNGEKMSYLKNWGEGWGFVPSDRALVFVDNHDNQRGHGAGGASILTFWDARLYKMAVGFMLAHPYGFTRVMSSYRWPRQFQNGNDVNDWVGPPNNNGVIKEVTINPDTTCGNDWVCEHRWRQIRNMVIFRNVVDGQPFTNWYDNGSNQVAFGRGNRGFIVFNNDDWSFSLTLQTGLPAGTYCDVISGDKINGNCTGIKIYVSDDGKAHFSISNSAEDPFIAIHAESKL

[1] = system: intestinal alpha-glucosidase; details: background statement; in vitro; cited from earlier work
ATP citrate lyase = target: T2, ATP citrate lyase (Homo sapiens, UniProt P53396); details: background statement; cited from earlier work
T2 sequence (P53396 1-1101): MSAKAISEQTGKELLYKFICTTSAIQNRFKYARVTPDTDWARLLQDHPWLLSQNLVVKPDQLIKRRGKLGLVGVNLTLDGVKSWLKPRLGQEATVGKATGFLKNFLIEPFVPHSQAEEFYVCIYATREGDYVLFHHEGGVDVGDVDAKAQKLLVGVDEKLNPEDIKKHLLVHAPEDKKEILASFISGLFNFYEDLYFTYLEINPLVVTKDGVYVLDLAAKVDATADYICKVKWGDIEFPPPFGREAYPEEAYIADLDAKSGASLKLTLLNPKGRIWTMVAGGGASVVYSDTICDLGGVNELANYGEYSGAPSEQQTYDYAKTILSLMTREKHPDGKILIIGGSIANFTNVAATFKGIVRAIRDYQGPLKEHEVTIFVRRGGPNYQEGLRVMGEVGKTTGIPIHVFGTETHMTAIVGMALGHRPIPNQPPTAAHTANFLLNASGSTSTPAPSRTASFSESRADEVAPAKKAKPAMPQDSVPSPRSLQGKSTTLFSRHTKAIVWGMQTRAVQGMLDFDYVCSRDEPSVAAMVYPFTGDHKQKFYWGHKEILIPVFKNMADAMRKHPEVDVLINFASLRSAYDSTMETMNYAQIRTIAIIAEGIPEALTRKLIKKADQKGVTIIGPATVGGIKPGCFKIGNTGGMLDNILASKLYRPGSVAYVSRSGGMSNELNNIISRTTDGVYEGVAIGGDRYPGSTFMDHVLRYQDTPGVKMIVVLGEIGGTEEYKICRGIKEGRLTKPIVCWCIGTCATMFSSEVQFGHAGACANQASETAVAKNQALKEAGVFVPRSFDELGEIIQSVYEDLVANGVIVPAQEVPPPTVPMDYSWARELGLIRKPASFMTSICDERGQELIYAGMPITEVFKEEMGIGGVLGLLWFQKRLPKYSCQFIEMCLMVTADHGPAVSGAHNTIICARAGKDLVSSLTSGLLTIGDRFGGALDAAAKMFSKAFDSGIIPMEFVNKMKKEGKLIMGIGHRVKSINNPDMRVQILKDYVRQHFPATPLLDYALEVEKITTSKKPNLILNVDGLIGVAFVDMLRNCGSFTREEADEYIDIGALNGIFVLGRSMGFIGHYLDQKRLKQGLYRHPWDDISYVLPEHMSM

blood sugar = test: Blood sugar levels after HCA administration; format: in vivo, human; details: conclusion, summary; in some cases only transient
Procedure: Subject 5 was a person, weighing approximately 285 pounds and with a […] fasting blood sugar level of 115-120. First, blood was drawn from Subject 5 and levels of various biomolecules were measured. Next, Subject 5 was administered 16.66 ml of the Example 1 formulation on an empty stomach, i.e. wherein with each 16.66 ml the subject received 5,000 mg of the potassium-magnesium (−)-hydroxycitric acid salt, corresponding to 3490 mg of (−)-hydroxycitric acid. 90 minutes after the administration, blood was drawn from Subject 5 and levels of the various biomolecules were remeasured. […] It is hypothesized that this transient elevation is due to Randall's Cycle. […] In support of this explanation, it is noted that this subject had previously used HCA formulations with the result of keeping their otherwise elevated fasting blood glucose levels in the low- to mid-90s with consistent usage.

[2] = system: blood hemoglobin and oxygen saturation; test: fNIRS measurement of blood hemoglobin and oxygen saturation after oral administration; format: in vivo, human; details: conclusion, summary over subjects
Procedure: Subjects 1-4 were orally administered the formulation of Example 1. The Subjects were given either one or two administrations of 8.33 ml of the aqueous formulation of Example 1 on an empty stomach, i.e. wherein with each 8.33 ml the subject received 2,500 mg of the potassium-magnesium (−)-hydroxycitric acid salt, corresponding to 1745 mg of (−)-hydroxycitric acid.
fNIRS testing (functional Near Infrared Spectroscopy) was used to measure blood hemoglobin and oxygen saturation. fNIRS can be used to determine real-time peripheral and cerebral hemodynamic responses. For example, relative changes in HbR (deoxygen saturation), HbO (oxygen saturation), and HbT (total hemoglobin concentration), etc. can be determined via application of Modified Beer Lambert Law. HbR, Hb=deoxygen saturation (shown as the thinnest and bottom dashed line in FIG. 1) HbO, HbO2=oxygen saturation (shown as the medium-thickness and middle line in FIG. 1) HbT=total hemoglobin concentration (shown as the darkest, thickest and top line in FIG. 1). On the graphs, time is in seconds.

Ketones = test: Blood ketones before and 90 minutes after administration; format: in vivo, human
Procedure: (§1) Subject 5 was a person, weighing approximately 285 pounds and with a normal fasting blood sugar level of 115-120. First, blood was drawn from Subject 5 and levels of various biomolecules were measured. Next, Subject 5 was administered 16.66 ml of the Example 1 formulation on an empty stomach, i.e. wherein with each 16.66 ml the subject received 5,000 mg of the potassium-magnesium (−)-hydroxycitric acid salt, corresponding to 3490 mg of (−)-hydroxycitric acid. 90 minutes after the administration, blood was drawn from Subject 5 and levels of the various biomolecules were remeasured.

Triglycerides = test: Blood triglycerides before and 90 minutes after administration; format: in vivo, human
Procedure: as §1
(§2) Subject 6 was administered 16.66 ml of the Example 1 formulation on an empty stomach, i.e. wherein with each 16.66 ml the subject received 5,000 mg of the potassium-magnesium (−)-hydroxycitric acid salt, corresponding to 3490 mg of (−)-hydroxycitric acid. 90 minutes after the administration, blood was drawn from Subject 6 and levels of the various biomolecules were remeasured.

Cortisol = test: Blood cortisol before and 90 minutes after administration; format: in vivo, human
Procedure: as §1, §2

[3] = conclusion, summary over subjects
[4] = a subject (Example 3), 5,000 mg salt (3,490 mg (−)-hydroxycitric acid), 90 minutes later

Compound: O=C(O)C[C@](O)(C(=O)O)[C@H](O)C(=O)O [(2S,3R)-HCA]
inhibition of pancreatic alpha-amylase (pancreatic alpha-amylase): inhibits
inhibition of intestinal alpha-glucosidase [1]: inhibits

glucose (blood sugar): increased
Compound: O=C(O)CC(O)(C(=O)O)C(O)C(=O)O (stereo not drawn) [HCA, 1,2-dihydroxypropane-1,2,3-tricarboxylic acid]
inhibition of ATP citrate lyase (ATP citrate lyase): competitive inhibitor
blood hemoglobin [2]: increased
oxygen saturation [2]: increased
Ketones Result (Ketones; Subject 5, 5,000 mg salt, empty stomach, 90 mins after administration, before 0.6): 0.5
levels of ketones (Ketones; conclusion, summary): relatively stable or slightly lower
triglycerides (Triglycerides; [3]): decreased
cortisol (Cortisol; [3]): decreased

Compound: potassium-magnesium salt of (−)-hydroxycitric acid
decrease in triglyceride level (Triglycerides; [4]): 67%
decrease in cortisol level (Cortisol; [4]): 20%
